For this data set the following is noted: Liquid.

Numbers after ± are expanded uncertainties.

In the case of `CC(F)(F)F` [1,1,1-trifluoroethane], the vapor or sublimation pressure – broadly, the equilibrium pressure above the liquid or solid – is on record as 1831 ± 14 kPa (313.15 K), 2302 ± 18 kPa (323.15 K), 2874 ± 22 kPa (333.15 K) and 3553 ± 28 kPa (343.15 K).
For the compound `CCCC` [butane], the “vapor or sublimation pressure” value by setting is: (313.15 K) 377 ± 3 kPa; (323.15 K) 495 ± 4 kPa; (333.15 K) 639 ± 5 kPa; (343.15 K) 810 ± 6 kPa; (353.15 K) 1012 ± 8 kPa; (363.15 K) 1250 ± 10 kPa.

The values above are taken from the NIST ThermoML archive (doi:10.1021/je060336+).
